Test results taken from patent US20260062422A1 (Halda Therapeutics OpCo, Inc., priority 2022, published 2026).

Legend:
[1] = Cellular growth inhibition, T-Rex 293 SC cells with doxycycline (progesterone receptor isoform B induced), Example 45; type: cell-based; conditions: progesterone receptor isoform B induced with 10 ng/mL doxycycline, 72 hours, CellTiter-Glo 2.0, Table 11
Experimental: (§1) The following types of cells were prepared for this experiment: (i) a T-Rex 293 cell line having increased expression of progesterone receptor isoform B protein due to exposure to doxycycline and (ii) a T-Rex 293 cell line lacking increased expression of progesterone receptor isoform B protein. Ability of the test compounds to inhibit proliferation of the foregoing cell types was evaluated according to the procedures set forth below.
(§2) The doxycycline-inducible progesterone receptor isoform B protein expressing cell line was established using the following protocol: T-Rex 293 cells were purchased from Invitrogen (Cat #R71007) and transfected using Lipofectamine 2000 with the wild-type progesterone receptor B protein sequence cloned into the pcDNA4/TO vector. Transfected cells were selected using 400 μg/mL Zeocin (Invitrogen Cat #R25001). Following selection, single clones were raised and maintained in Dulbecco's Modified Eagle Medium (DMEM) supplemented with 10% w/w Tetracycline-free fetal bovine serum (FBS) and 250 μg/mL Zeocin. Clones were analyzed for expression of progesterone receptor isoform B protein in the presence and absence of 10 ng/mL doxycycline (Sigma Cat #D9891), and a single doxycycline-inducible clone (hereinafter “SC”) was selected for use in downstream assays.
(§3) The SC cells were seeded on poly-D-lysine coated, black clear-bottom 384-well plates at 2500/well, in 25 μL Phenol Red Free Dulbecco's Modified Eagle Medium (DMEM) supplemented with 10% w/w charcoal-dextran treated fetal bovine serum (FBS) and 1% w/w pen-strep, with or without 10 ng/mL doxycycline. Pen-Strep is a commercially available mixture of penicillin G and streptomycin, which is used in mammalian cell culture media to prevent bacterial contamination. Phenol Red Free Dulbecco's Modified Eagle Medium (DMEM) supplemented with 10% w/w charcoal-dextran treated fetal bovine serum (FBS) and 1% w/w pen-strep, with or without 10 ng/mL doxycycline is herein referred to as Treatment Medium. Following seeding of cells in the plates, the plates were spun at 300×g for 30 seconds, then equilibrated to room temperature for 30 minutes, and then deposited in a humidified tissue culture incubator maintained at 37° C. with 5% CO2.
(§4) At 24 hours after seeding of the cells, dilutions of test compound were prepared in DMSO and dissolved in Treatment Medium, to achieve a final DMSO concentration of 0.5% w/w, thereby providing the Test Compound Solution. A 25 μL aliquot of the Test Compound Solution was added to cells in the well plates. An equal volume of a solution containing DMSO and Treatment Medium was used as a negative control. Following treatment of cells with Test Compound Solution or said equal volume of a solution containing DMSO and Treatment Medium, the plates were spun at 300×g for 30 seconds, and then left in an incubator for 72 hours.
(§5) At the end of the treatment duration, cell viability was quantified with CellTiter-Glo 2.0 reagent (Promega Cat #G9243). For this purpose, plates were equilibrated to room temperature for 30 minutes, and then 25 μL of CellTiter-Glo 2.0 reagent was added to cells in the plate wells. Plates were then agitated on a shaker for two minutes at 500 rpm and subsequently incubated at room temperature for 10 minutes. Following incubation, the plates were spun at 3000×g for 30 seconds, then sealed with an optical adhesive cover, and luminescence readings were measured with an EnVision Plate Reader (Perkin Elmer).
(§6) Data was normalized using zero luminescence for baseline. A four-parameter non-linear regression curve fit was applied to dose-response data in GraphPad Prism data analysis software to determine the half-maximal growth inhibitory concentration (GI50) for each test compound.

[2] = test system: T-Rex 293 cell line SC cells lacking increased expression of progesterone receptor isoform B protein; experiment: Cellular growth inhibition, T-Rex 293 SC cells without doxycycline, Example 45; type: cell-based; conditions: T-Rex 293 SC cells not exposed to doxycycline, 72 hours treatment, CellTiter-Glo 2.0
Experimental: as §1, §2, §3, §4, §5, §6

BRD4-BD1 = molecular target: T1, BRD4-BD1 (Homo sapiens, UniProt O60885); experiment: bromoKdELECT assay for binding affinity to BRD4-BD1; conditions: Table 6
T1 construct: made in house; host or cells: T7 phage grown in an E. coli host derived from BL21
Experimental: Compounds were tested using a bromoKdELECT assay. T7 phage strains displaying bromodomains were grown in parallel in 24-well blocks in an E. coli host derived from the BL21 strain. E. coli were grown to log-phase and infected with T7 phage from a frozen stock (multiplicity of infection=0.4) and incubated with shaking at 32° C. until lysis (90-150 minutes). The lysates were centrifuged (5,000×g) and filtered (0.2 μm) to remove cell debris. Streptavidin-coated magnetic beads were treated with biotinylated small molecule or acetylated peptide ligands for 30 minutes at room temperature to generate affinity resins for bromodomain assays. The liganded beads were blocked with excess biotin and washed with blocking buffer (SeaBlock (Pierce), 1% BSA, 0.05% Tween 20, 1 mM DTT) to remove unbound ligand and to reduce nonspecific phage binding. Binding reactions were assembled by combining bromodomains, liganded affinity beads, and test compounds in 1× binding buffer (17% SeaBlock, 0.33×PBS, 0.04% Tween 20, 0.02% BSA, 0.004% Sodium azide, 7.4 mM DTT). Test compounds were prepared as 1000× stocks in 100% DMSO. Kds were determined using an 11-point 3-fold compound dilution series with one DMSO control point. All compounds for Kd measurements are distributed by acoustic transfer (non-contact dispensing) in 100% DMSO. The compounds were then diluted directly into the assays such that the final concentration of DMSO was 0.09%. All reactions performed in polypropylene 384-well plates. Each was a final volume of 0.02 ml. The assay plates were incubated at room temperature with shaking for 1 hour and the affinity beads were washed with wash buffer (1×PBS, 0.05% Tween 20). The beads were then resuspended in elution buffer (1×PBS, 0.05% Tween […] non-biotinylated affinity ligand) and incubated at room temperature with shaking for 30 minutes. The bromodomain concentration in the eluates was measured by qPCR.

Kd (BRD4-BD1) [µM] | Structure (SMILES) | GI50 [1] [µM] | GI50 [2] [µM]
0.05 to 0.5 | Cc1sc2c(c1C)C(c1ccc(Cl)cc1)=N[C@@H](CC(=O)NCCOCCOCCOCCOCCN(C)c1ncc(C(=O)N[C@H]3C(C)(C)[C@H](Oc4ccc(C#N)c(Cl)c4)C3(C)C)cn1)c1nnc(C)n1-2 [Compound I-3, N-((1r,3r)-3-(3-chloro-4-cyanophenoxy)-2,2,4,4-tetramethylcyclobutyl)-2-((1-((S)-4-(4-chlorophenyl)-2,3,9-trimethyl-6H-thieno[3,2-f][1,2,4]triazolo[4,3-a][1,4]diazepin-6-yl)-2-oxo-6,9,12,15-tetraoxa-3-azaheptadecan-17-yl)(methyl)amino)pyrimidine-5-carboxamide] | < 0.5 | 1.5 to 3
0.05 to 0.5 | Cc1sc2c(c1C)C(c1ccc(Cl)cc1)=N[C@@H](CC(=O)NCCOCCOCCOCC1CN(c3ncc(C(=O)N[C@H]4C(C)(C)[C@H](Oc5ccc(C#N)c(Cl)c5)C4(C)C)cn3)C1)c1nnc(C)n1-2 [Compound I-18] | – | –
0.5 to 2.5 | CCNC(=O)C[C@@H]1N=C(c2ccc(OCCOC3CCN(c4ncc(C(=O)N[C@H]5C(C)(C)[C@H](Oc6ccc(C#N)c(Cl)c6)C5(C)C)cn4)CC3)c(F)c2)c2c(sc(C)c2C)-n2c(C)nnc21 [Compound I-76] | – | –
> 2.5 | CCNC(=O)C[C@@H]1N=C(c2ccc(CCCC3CCN(c4ncc(C(=O)N[C@H]5C(C)(C)[C@H](Oc6ccc(C#N)c(Cl)c6)C5(C)C)cn4)CC3)cc2)c2c(sc(C)c2C)-n2c(C)nnc21 [Compound I-95] | – | –
> 2.5 | CCN(C)C(=O)C[C@@H]1N=C(c2ccc(CCCOC3CCN(c4ncc(C(=O)N[C@H]5C(C)(C)[C@H](Oc6ccc(C#N)c(Cl)c6)C5(C)C)cn4)CC3)cc2)c2c(sc(C)c2C)-n2c(C)nnc21 [Compound I-101] | – | –
0.5 to 2.5 | Cc1sc2c(c1C)C(c1ccc(CCCOC3CCN(c4ncc(C(=O)N[C@H]5C(C)(C)[C@H](Oc6ccc(C#N)c(Cl)c6)C5(C)C)cn4)CC3)cc1)=N[C@@H](CC(=O)NC1CC1)c1nnc(C)n1-2 [Compound I-102] | – | –
0.05 to 0.5 | CCNC(=O)C[C@@H]1N=C(c2ccc(N(C)CCN3CCN(c4ncc(C(=O)N[C@H]5C(C)(C)[C@H](Oc6ccc(C#N)c(Cl)c6)C5(C)C)cn4)CC3)cc2)c2c(sc(C)c2C)-n2c(C)nnc21 [Compound I-108] | – | –
< 0.05 | CCNC(=O)C[C@@H]1N=C(c2ccc(N3CCC(N(C)C4CCN(c5ncc(C(=O)N[C@H]6C(C)(C)[C@H](Oc7ccc(C#N)c(Cl)c7)C6(C)C)cn5)CC4)CC3)cc2)c2c(sc(C)c2C)-n2c(C)nnc21 [Compound I-113] | – | –
0.05 to 0.5 | CCNC(=O)C[C@@H]1N=C(c2ccc(N(C)C3CN(CC4CCN(c5ncc(C(=O)N[C@H]6C(C)(C)[C@H](Oc7ccc(C#N)c(Cl)c7)C6(C)C)cn5)CC4)C3)cc2)c2c(sc(C)c2C)-n2c(C)nnc21 [Compound I-119] | – | –

Further lines, the molecule ahead of its results:

Structure (SMILES) | Kd (BRD4-BD1) [µM] | GI50 [1] [µM] | GI50 [2] [µM]
Cc1sc2c(c1C)C(c1ccc(Cl)cc1)=N[C@@H](CC(=O)NCCOC1CCN(c3ncc(C(=O)N[C@H]4C(C)(C)[C@H](Oc5ccc(C#N)c(Cl)c5)C4(C)C)cn3)CC1)c1nnc(C)n1-2 [Compound I-6] | > 2.5 | < 0.5 | < 0.5
Cc1sc2c(c1C)C(c1ccc(Cl)cc1)=N[C@@H](CC(=O)NCCOCCOCCOC1CCN(c3ncc(C(=O)N[C@H]4C(C)(C)[C@H](Oc5ccc(C#N)c(Cl)c5)C4(C)C)cn3)CC1)c1nnc(C)n1-2 [Compound I-7] | 0.5 to 2.5 | < 0.5 | < 0.5
Cc1sc2c(c1C)C(c1ccc(Cl)cc1)=N[C@H](CC(=O)NCCOCCOCCOCCOCCN(C)c1ncc(C(=O)N[C@H]3C(C)(C)[C@H](Oc4ccc(C#N)c(Cl)c4)C3(C)C)cn1)c1nnc(C)n1-2 [Compound I-19] | > 2.5 | – | –
Cc1sc2c(c1C)C(c1ccc(Cl)cc1)=N[C@@H](CC(=O)NCCCCCCCOC1CCN(c3ncc(C(=O)N[C@H]4C(C)(C)[C@H](Oc5ccc(C#N)c(Cl)c5)C4(C)C)cn3)CC1)c1nnc(C)n1-2 [Compound I-24] | > 2.5 | – | –
Cc1sc2c(c1C)C(c1ccc(Cl)cc1)=N[C@@H](CC(=O)NCCCCOCCOC1CCN(c3ncc(C(=O)N[C@H]4C(C)(C)[C@H](Oc5ccc(C#N)c(Cl)c5)C4(C)C)cn3)CC1)c1nnc(C)n1-2 [Compound I-28] | 0.5 to 2.5 | – | –
Cc1sc2c(c1C)C(c1ccc(Cl)cc1)=N[C@@H](CC(=O)NCCCN1CCN(CC3CCN(c4ncc(C(=O)N[C@H]5C(C)(C)[C@H](Oc6ccc(C#N)c(Cl)c6)C5(C)C)cn4)CC3)CC1)c1nnc(C)n1-2 [Compound I-36, N-((1r,3r)-3-(3-chloro-4-cyanophenoxy)-2,2,4,4-tetramethylcyclobutyl)-2-(4-((4-(3-(2-((S)-4-(4-chlorophenyl)-2,3,9-trimethyl-6H-thieno[3,2-f][1,2,4]triazolo[4,3-a][1,4]diazepin-6-yl)acetamido)propyl)piperazin-1-yl)methyl)piperidin-1-yl)pyrimidine-5-carboxamide] | 0.05 to 0.5 | – | –
CCN(C)C(=O)C[C@@H]1N=C(c2ccc(OCCOC3CCN(c4ncc(C(=O)N[C@H]5C(C)(C)[C@H](Oc6ccc(C#N)c(Cl)c6)C5(C)C)cn4)CC3)cc2)c2c(sc(C)c2C)-n2c(C)nnc21 [Compound I-66] | 0.5 to 2.5 | – | –
CCNC(=O)C[C@@H]1N=C(c2ccc(OCC3CN(c4ncc(C(=O)N[C@H]5C(C)(C)[C@H](Oc6ccc(C#N)c(Cl)c6)C5(C)C)cn4)C3)cc2)c2c(sc(C)c2C)-n2c(C)nnc21 [Compound I-71] | 0.05 to 0.5 | – | –
CCNC(=O)C[C@@H]1N=C(c2ccc(OCCOC3CCN(c4ncc(C(=O)N[C@H]5C(C)(C)[C@H](Oc6ccc(C#N)c(Cl)c6)C5(C)C)cn4)CC3)c(F)c2F)c2c(sc(C)c2C)-n2c(C)nnc21 [Compound I-73] | 0.5 to 2.5 | – | –
CCNC(=O)C[C@@H]1N=C(c2ccc(OCCOC3CCN(c4ncc(C(=O)N[C@H]5C(C)(C)[C@H](Oc6ccc(C#N)c(Cl)c6)C5(C)C)cn4)CC3)cc2F)c2c(sc(C)c2C)-n2c(C)nnc21 [Compound I-75] | 0.5 to 2.5 | – | –
Cc1sc2c(c1C)C(c1ccc(CCCOC3CCN(c4ncc(C(=O)N[C@H]5C(C)(C)[C@H](Oc6ccc(C#N)c(Cl)c6)C5(C)C)cn4)CC3)cc1)=N[C@@H](CC(=O)NC(C)C)c1nnc(C)n1-2 [Compound I-100] | > 2.5 | – | –
CCNC(=O)C[C@@H]1N=C(c2ccc(N(C)CC3CN(c4ncc(C(=O)N[C@H]5C(C)(C)[C@H](Oc6ccc(C#N)c(Cl)c6)C5(C)C)cn4)C3)cc2)c2c(sc(C)c2C)-n2c(C)nnc21 [Compound I-107] | 0.05 to 0.5 | – | –
CCNC(=O)C[C@@H]1N=C(c2ccc(N3CCC(OC4CCN(c5ncc(C(=O)N[C@H]6C(C)(C)[C@H](Oc7ccc(C#N)c(Cl)c7)C6(C)C)cn5)CC4)CC3)cc2)c2c(sc(C)c2C)-n2c(C)nnc21 [Compound I-114] | 0.05 to 0.5 | – | –
